{"source": "paper PMC7726757", "about": "(ACS Omega, 2020)", "experiment_in_all_cases": "Isothermal titration calorimetry", "key": {"Fn-NanK": {"target": "T1, Fn-NanK (Fusobacterium nucleatum, UniProt Q8RDN7)", "T1 sequence (Q8RDN7 1-291)": "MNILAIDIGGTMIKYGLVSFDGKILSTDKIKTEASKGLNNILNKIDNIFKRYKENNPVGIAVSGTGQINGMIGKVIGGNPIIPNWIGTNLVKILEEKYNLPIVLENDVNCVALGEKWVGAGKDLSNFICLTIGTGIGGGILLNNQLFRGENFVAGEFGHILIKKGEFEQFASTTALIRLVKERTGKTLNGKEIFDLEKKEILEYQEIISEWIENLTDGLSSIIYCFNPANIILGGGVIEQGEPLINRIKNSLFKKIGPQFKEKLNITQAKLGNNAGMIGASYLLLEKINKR", "format": "binding, F. nucleatum", "conditions": "Fn-NanK wild type"}, "Pm-NanK": {"target": "T2, Pm-NanK (Pasteurella multocida, UniProt Q9CKB3, M259T)", "T2 sequence (Q9CKB3 1-297 M259T)": "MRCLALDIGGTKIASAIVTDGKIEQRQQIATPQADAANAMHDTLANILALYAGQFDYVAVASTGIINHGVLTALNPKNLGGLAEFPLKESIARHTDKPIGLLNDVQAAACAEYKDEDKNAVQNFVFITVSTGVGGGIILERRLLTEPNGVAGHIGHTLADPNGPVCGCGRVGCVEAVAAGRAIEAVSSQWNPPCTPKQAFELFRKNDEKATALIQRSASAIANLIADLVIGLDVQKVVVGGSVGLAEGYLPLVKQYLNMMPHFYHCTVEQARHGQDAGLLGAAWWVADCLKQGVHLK", "format": "binding, P. multocida"}, "Vc-NanK": {"target": "T3, Vc-NanK (Vibrio cholerae serotype O1, UniProt Q9KR61)", "T3 sequence (Q9KR61 1-287)": "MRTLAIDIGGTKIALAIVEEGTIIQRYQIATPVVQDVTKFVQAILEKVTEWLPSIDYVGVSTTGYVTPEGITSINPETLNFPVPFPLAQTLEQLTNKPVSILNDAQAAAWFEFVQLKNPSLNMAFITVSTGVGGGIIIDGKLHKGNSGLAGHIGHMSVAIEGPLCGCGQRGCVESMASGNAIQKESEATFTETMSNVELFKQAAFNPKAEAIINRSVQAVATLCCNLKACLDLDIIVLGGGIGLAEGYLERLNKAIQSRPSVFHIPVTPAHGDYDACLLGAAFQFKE", "format": "binding, V. cholera"}, "Hi-NanK": {"target": "T4, Hi-NanK (Haemophilus influenzae, UniProt Q4QP43)", "T4 sequence (Q4QP43 1-300)": "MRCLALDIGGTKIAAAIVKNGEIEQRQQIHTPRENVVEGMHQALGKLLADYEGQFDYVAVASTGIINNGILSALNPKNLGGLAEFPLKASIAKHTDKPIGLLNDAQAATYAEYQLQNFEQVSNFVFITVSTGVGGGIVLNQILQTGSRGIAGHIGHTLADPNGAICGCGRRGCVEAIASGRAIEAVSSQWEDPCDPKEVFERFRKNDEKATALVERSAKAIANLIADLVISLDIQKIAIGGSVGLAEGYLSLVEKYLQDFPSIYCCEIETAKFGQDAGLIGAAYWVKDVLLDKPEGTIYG", "format": "binding, H. influenzae"}, "[1]": {"conditions": "Hi-NanK wild type, ligand alone"}, "[2]": {"conditions": "Hi-NanK, in the presence of ManNAc"}}}
{"molecule": "Nc1ncnc2c1ncn2[C@@H]1O[C@H](COP(=O)(O)OP(=O)(O)NP(=O)(O)O)[C@@H](O)[C@H]1O", "note": "[AMPPNP, adenylyl-imidodiphosphate]", "values": [{"measurement": "Kd", "setting": "Fn-NanK; in the presence of ManNAc", "value": "35 ± 1.12", "unit": "µM"}, {"measurement": "TΔS", "setting": "Fn-NanK; in the presence of ManNAc", "value": "–2.87 Kcal/mol"}, {"measurement": "ΔH", "setting": "Fn-NanK; in the presence of ManNAc", "value": "–8.94 ± 0.18 Kcal/mol"}, {"measurement": "Kd", "setting": "Fn-NanK; ligand alone", "value": "61 ± 7.48", "unit": "µM"}, {"measurement": "TΔS", "setting": "Fn-NanK; ligand alone", "value": 2.13, "unit": "kcal/mol"}, {"measurement": "Kd", "setting": "Pm-NanK; in the presence of ManNAc", "value": "112 ± 14.5", "unit": "µM"}, {"measurement": "TΔS", "setting": "Pm-NanK; in the presence of ManNAc", "value": 1.1, "unit": "kcal/mol"}, {"measurement": "ΔH", "setting": "Pm-NanK; in the presence of ManNAc", "value": "–4.3 ± 0.35 Kcal/mol"}, {"measurement": "Kd", "setting": "Pm-NanK; ligand alone", "value": "no measurable binding"}, {"measurement": "Kd", "setting": "Vc-NanK; in the presence of ManNAc", "value": "44 ± 9.2", "unit": "µM"}, {"measurement": "TΔS", "setting": "Vc-NanK; in the presence of ManNAc", "value": 3.814, "unit": "kcal/mol"}, {"measurement": "ΔH", "setting": "Vc-NanK; in the presence of ManNAc", "value": "–2.1 ± 0.482 Kcal/mol"}, {"measurement": "Kd", "setting": "Vc-NanK; ligand alone", "value": "no measurable binding"}, {"measurement": "Kd", "setting": "Hi-NanK; [1]", "value": "53 ± 6.4", "unit": "µM"}, {"measurement": "TΔS", "setting": "Hi-NanK; [1]", "value": "–1.85 Kcal/mol"}, {"measurement": "ΔH", "setting": "Hi-NanK; [1]", "value": "–7.7 ± 2.44 Kcal/mol"}, {"measurement": "Kd", "setting": "Hi-NanK; [2]", "value": "72 ± 12", "unit": "µM"}, {"measurement": "TΔS", "setting": "Hi-NanK; [2]", "value": 1.94, "unit": "kcal/mol"}, {"measurement": "ΔH", "setting": "Hi-NanK; [2]", "value": "–3.7 ± 0.68 Kcal/mol"}]}
